Experimental data from ChEMBL document CHEMBL1201862, “PubChem BioAssay data set” (2004).
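Cultured in 96-well plates, cells were exposed to test compound for 48 hours across five concentrations. At the GI50, growth is halved.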 The source made the active and inactive calls. Rule as the data show it: active = GI50 up to about 1.1 µM and inactive = higher.

Key:
Test in all cases: NCI anticancer screen, dose series, 48 h
[1] = test system: HCC 2998
[2] = test system: HOP-92
[3] = test system: A498
[4] = test system: NCI-H522
[5] = test system: IGROV-1
[6] = test system: SNB-19
[7] = test system: K562
[8] = test system: OVCAR-4
[9] = test system: COLO 205
[10] = test system: HT-29
[11] = test system: LOX IMVI
[12] = test system: UO-31
[13] = test system: OVCAR-8
[14] = test system: SF-268
[15] = test system: MDA-MB-231
[16] = test system: HCT-116
[17] = test system: EKVX
[18] = test system: TK-10
[19] = test system: RXF 393

Measured: GI50

Cc1cc(=O)oc2c(OS(C)(=O)=O)c(OS(C)(=O)=O)ccc12
inactive: [1] > 100 µM | [2] > 100 µM | [3] > 100 µM | [4] > 100 µM | [5] > 100 µM | [6] > 100 µM | [7] > 100 µM | [8] > 100 µM | [9] > 100 µM | [10] > 100 µM | [11] > 100 µM | [12] > 100 µM | [13] > 100 µM | [14] > 100 µM | [15] > 100 µM | [16] > 100 µM | [17] > 100 µM | [18] > 100 µM

Cn1c(C(C)(C)OC(=O)Oc2ccccc2)cnc1[N+](=O)[O-]
inactive: [2] > 100 µM | [3] > 100 µM | [19] > 100 µM | [4] 70.8 µM | [5] 55.6 µM | [6] > 100 µM | [7] 59.2 µM | [8] 38.7 µM | [9] 71.1 µM | [10] 34 µM | [12] > 100 µM | [13] 70.6 µM | [14] > 100 µM | [15] 26.1 µM | [16] 92.5 µM | [17] 42.9 µM | [18] > 100 µM

CC(CO)C1C[C@H](O)[C@@]2(C)CC(=O)C=C(CO)[C@@H]2C1 (some centres not stated)
inactive: [1] > 100 µM | [2] > 100 µM | [3] > 100 µM | [19] > 100 µM | [5] > 100 µM | [6] > 100 µM | [8] > 100 µM | [9] > 100 µM | [10] > 100 µM | [11] > 100 µM | [12] > 100 µM | [13] > 100 µM | [14] > 100 µM | [15] > 100 µM | [16] > 100 µM | [17] > 100 µM | [18] > 100 µM

N#CC(C#N)=C1CCCS(=O)(=O)c2ccccc21
inactive: [1] > 100 µM | [2] > 100 µM | [3] 56.4 µM | [19] > 100 µM | [5] > 100 µM | [6] > 100 µM | [7] > 100 µM | [8] > 100 µM | [9] > 100 µM | [10] > 100 µM | [11] > 100 µM | [12] > 100 µM | [13] > 100 µM | [14] > 100 µM | [15] > 100 µM | [16] > 100 µM | [17] > 100 µM | [18] > 100 µM

COC(=O)C1CC(C=[N+](C)C)=C(SC)N1C(=O)OCc1ccccc1 (configuration not stated)
inactive: [1] > 100 µM | [2] > 100 µM | [3] > 100 µM | [19] > 100 µM | [4] > 100 µM | [5] > 100 µM | [6] > 100 µM | [7] > 100 µM | [8] > 100 µM | [9] > 100 µM | [10] > 100 µM | [12] > 100 µM | [13] > 100 µM | [14] > 100 µM | [15] > 100 µM | [16] > 100 µM | [17] > 100 µM | [18] > 100 µM

CC(=O)OCCCCn1nncc1Cn1ccc(=O)n(Cc2cnnn2CCCCOC(C)=O)c1=O
inactive: [1] > 100 µM | [2] > 100 µM | [3] > 100 µM | [19] > 100 µM | [5] > 100 µM | [6] > 100 µM | [8] > 100 µM | [9] > 100 µM | [11] > 100 µM | [12] > 100 µM | [13] > 100 µM | [14] > 100 µM | [15] > 100 µM | [16] > 100 µM | [17] > 100 µM | [18] > 100 µM

O=C(O)CN1CCN(CC(=O)N2CCN(C(=O)OCc3ccccc3)CC2)CCN(CC(=O)O)CCN(CC(=O)N2CCN(C(=O)OCc3ccccc3)CC2)CC1
inactive: [1] > 100 µM | [2] > 100 µM | [3] > 100 µM | [4] > 100 µM | [5] > 100 µM | [6] > 100 µM | [7] > 100 µM | [8] > 100 µM | [9] > 100 µM | [10] > 100 µM | [11] > 100 µM | [12] > 100 µM | [13] > 100 µM | [15] > 100 µM | [16] > 100 µM | [17] > 100 µM | [18] > 100 µM

COc1cc2c(cc1O)CC[n+]1cc3c(OC)c(OC)ccc3cc1-2
inactive: [1] > 100 µM | [2] 87.7 µM | [3] > 100 µM | [4] > 100 µM | [5] > 100 µM | [6] 60.1 µM | [7] 75 µM | [8] > 100 µM | [9] 72.4 µM | [10] > 100 µM | [11] > 100 µM | [12] > 100 µM | [13] > 100 µM | [14] > 100 µM | [15] > 100 µM | [16] > 100 µM | [17] > 100 µM | [18] > 100 µM

N#Cc1c(Cl)c(C=O)c(=O)n2c1[nH]c1ccccc12
inactive: [1] > 100 µM | [2] 24.2 µM | [3] 31.7 µM | [4] 44 µM | [5] > 100 µM | [6] 63.8 µM | [7] 56.8 µM | [8] 84.5 µM | [9] 59.7 µM | [10] 36 µM | [11] 33.7 µM | [12] 46.2 µM | [13] 42.1 µM | [14] 38.6 µM | [15] 31.8 µM | [16] 29.8 µM | [17] > 100 µM | [18] > 100 µM

C=CCCCC1CCCNC1=O (configuration not stated)
inactive: [1] > 100 µM | [2] > 100 µM | [3] > 100 µM | [19] > 100 µM | [4] > 100 µM | [5] > 100 µM | [6] > 100 µM | [7] > 100 µM | [8] > 100 µM | [10] > 100 µM | [12] > 100 µM | [13] > 100 µM | [14] > 100 µM | [15] > 100 µM | [16] > 100 µM | [17] > 100 µM | [18] > 100 µM

Cc1c(O)c(OC2OC(CO)C(O)C(O)C2O)cc2c1CC[C@@H]1C2(C)C(=O)C[C@]2(C)[C@@H]([C@@](C)(O)C(=O)CCC(C)(C)O)[C@H](O)C[C@@]12C (some centres not stated)
inactive: [1] > 100 µM | [2] > 100 µM | [3] > 100 µM | [19] > 100 µM | [4] > 100 µM | [5] > 100 µM | [6] > 100 µM | [7] > 100 µM | [8] > 100 µM | [9] > 100 µM | [10] > 100 µM | [12] > 100 µM | [13] > 100 µM | [14] > 100 µM | [15] > 100 µM | [16] > 100 µM | [17] > 100 µM | [18] > 100 µM
